# System: brain myelination
# Experiment: Cross-sectional correlation analysis (GLM) of formula nutrient composition versus brain myelination (MWF by mcDESPOT MRI)
# Type: in vivo, human
# Details: children up to 5 years fed different infant formulas during infancy; voxel-wise correlations, p<0.05 corrected
# Method: MRI brain scans of infants and children between 0 and 5 years were acquired using a white matter imaging technique. This technique provides a quantitative measure, the Myelin Water Fraction (MWF), which is a surrogate marker of myelin content. When mapped as a function of time across early childhood, myelination trajectories can be generated.
# Infant formula composition: six infant formulas fed to infants participating in study were analyzed for their composition/level of myelin-relevant nutrients.
# Infants included in this study were drawn from a larger longitudinal study of normal brain and behavioral development: the Brown university Assessment of Myelination and Behavior Across Maturation (BAMBAM). To focus on neurotypical development, children with known potential risk factors for learning, neurologic, or psychiatric disorders were specifically excluded during recruitment and enrollment. Thus, children with in utero alcohol or illicit substance exposure, premature (<37 weeks gestation) or multiple birth, fetal ultrasound abnormalities, complicated pregnancy (e.g., preeclampsia), APGAR scores<8, NICU admission, neurological disorder (e.g., head injury, epilepsy), psychiatric or developmental disorders in the infant, parents or siblings (including maternal depression requiring medication) were excluded. Ongoing screenings, such as the MCAT for autism, or CBCL for behavioral problems, were further used to remove enrolled children with clinically concerning behaviors or overt medical conditions (such as autism spectrum disorders).
# A combination of retrospective and prospective data were acquired from parents via detailed medical histories and parental interview on type of infant formula used, percentage of breastfeeding to formula feeding, and length of exclusive breastfeeding. This information was updated at each study visit, which occurred approximately every 6 months for children under 2 years, and yearly for older children. Using this information, children were categorized into one of 2 groups: #1. Exclusively formula-fed; and #2. Exclusively breastfed for at least 90 days (3 months). Children who were fed a combination of breastmilk and formula within 3 months were excluded from our analysis. Infants within the exclusively formula-fed group were further sub-divided based on parental reports of the main infant formula used throughout the first 3 months. Main formula was defined as that given 90% of the time or more (in the case were parents used an alternate brand during vacation, for example).
# Using these criteria, 94 exclusively formula-fed infants and young children were selected into group #1. These included 13 children who received formula #2; 28 who received formula #5; 8 who received formula #3; 39 who received formula #4; 5 who received formula #1 and 1 who received formula #6. A sample of 52 exclusively breast-fed infants were also selected and matched to the over formula-fed group with regards to mean age, gestation duration, birth weight, male:female ratio, ethnicity ratio, maternal education, family size, and number of languages spoken in the home (in addition to English).
# Each infant was scanned using the mcDESPOT (multicomponent Driven Equilibrium Single Pulse Observation of T1 and T2) white matter imaging technique Deoni et al. (Magn. Reson. Med. 2008, 60:1372-1387), which provides a quantitative measure of the myelin water fraction (MWF) at each imaging point throughout the brain. All infants were scanned during natural (i.e. non-sedated) sleep using acoustically-muffled mcDESPOT imaging protocols. Total imaging times ranged from 19 minutes for the youngest toddlers to 24 minutes for the older 4 year-old children.
row,Compound,nutritional drivers for myelination (final general linear model)
1,"CCCCC/C=C\C/C=C\C/C=C\C/C=C\CCCC(=O)O [ARA, arachidonic acid]",identified drivers
2,C[N+](C)(C)CCO [Choline],identified drivers
3,Vitamin B12,identified drivers
4,phosphatidylcholine,identified drivers
5,phosphatidylinositol,identified drivers
6,sphingomyelin,identified drivers
